Values of other authors, collected in patent US20210115268A1, “FUNCTIONALIZED QUATERNARY AMMONIUM HALIDES AND USE THEREOF” (Agency for Science, Technology and Research, priority 2015, published 2021).

Settings: glass, cotton, polyester fibers or polyurethane foams treated with the silane; after repeated washings

## CCCCCCCCCCCCCCCCCC[N+](C)(C)CCC[Si](OC)(OC)OC.[Cl-] [DC 5700, (MeO)3Si(CH2)3N^+Me2C18H37Cl]
  algicidal and bactericidal properties, leaching: showed algicidal and bactericidal properties that are maintained after repeated washings and no apparent leaching was observed
